According to publication PMC10338474 (Nature Communications, 2023):
“And” between values parts separate entries of the source, which are not always exact repeats. Identical values can stand only once. “Also recorded” adds a separate entry of the source. Like-named read-outs stand apart in the source and are kept apart here. Values belong to the molecule of their own block, whether it stands above or below them.

Key:
arrhythmia in rats = conditions: cited from earlier work
EPAC1^α-CNB-GEF [1] = conditions: cited from earlier work
EPAC1^FL [2] = molecular target: T1, EPAC1^FL (Homo sapiens, UniProt O95398); assay: Liposome flotation binding assay of EPAC1^FL
T1 construct: Human full-length EPAC1 (EPAC1^FL) was cloned into a pET28a vector (6xHis tag in N-terminus); made in house; host or cells: E. coli BL21 (DE3) pG-KJE8
T1 sequence (O95398 1-881 isoform O95398-3): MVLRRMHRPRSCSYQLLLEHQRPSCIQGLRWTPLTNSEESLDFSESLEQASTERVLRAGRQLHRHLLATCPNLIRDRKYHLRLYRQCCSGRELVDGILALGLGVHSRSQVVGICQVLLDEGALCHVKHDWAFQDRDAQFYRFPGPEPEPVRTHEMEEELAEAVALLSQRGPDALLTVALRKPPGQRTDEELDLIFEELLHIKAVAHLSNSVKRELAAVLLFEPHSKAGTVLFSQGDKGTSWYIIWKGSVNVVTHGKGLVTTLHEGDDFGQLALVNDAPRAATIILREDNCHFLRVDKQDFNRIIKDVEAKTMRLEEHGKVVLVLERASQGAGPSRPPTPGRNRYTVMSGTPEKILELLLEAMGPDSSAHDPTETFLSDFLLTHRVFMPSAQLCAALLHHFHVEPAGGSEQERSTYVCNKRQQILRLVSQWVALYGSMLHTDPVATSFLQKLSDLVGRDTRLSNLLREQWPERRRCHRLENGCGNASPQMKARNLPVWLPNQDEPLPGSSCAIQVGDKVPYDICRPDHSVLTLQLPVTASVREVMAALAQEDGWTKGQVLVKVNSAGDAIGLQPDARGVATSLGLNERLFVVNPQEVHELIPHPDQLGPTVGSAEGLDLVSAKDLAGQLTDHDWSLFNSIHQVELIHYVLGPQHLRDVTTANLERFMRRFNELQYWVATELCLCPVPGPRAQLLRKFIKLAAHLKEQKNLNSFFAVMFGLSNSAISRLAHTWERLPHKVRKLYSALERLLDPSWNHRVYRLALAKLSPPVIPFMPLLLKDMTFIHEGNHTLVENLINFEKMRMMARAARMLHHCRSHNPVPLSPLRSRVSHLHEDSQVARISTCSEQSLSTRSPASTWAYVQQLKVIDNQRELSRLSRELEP

[3] = tested on: Rap1 GTPase in cardiomyocytes; parameters: method as in PMID 23139415; conditions: cited from earlier work
[4] = tested on: isolated CNB domain of EPAC1; conditions: NMR; without competing with cAMP; cited from earlier work
EPAC1^α-CNB-GEF [5] = molecular target: EPAC1^α-CNB-GEF (Homo sapiens, UniProt O95398); conditions: for Dmax (largest protein dimension): EPAC1^α-CNB-GEF with the single ligand (cAMP 1 mM/200 μM or CE3F4 100 μM racemic mix)
Experimental: All small angle X-ray scattering (SAXS) data were obtained from size exclusion chromatography-SAXS (SEC-SAXS) experiments on the SWING beamline (SOLEIL synchrotron, France), using the EPAC1^α-CNB-GEF construct. EPAC1 was used at a concentration of 60 μM to obtain high SAXS intensities. Samples were injected on high-performance liquid chromatography (HPLC) size exclusion column (BioSEC-3 300 Å, Agilent Technologies, Inc.) equilibrated with the elution buffer (20 mM Tris-HCl pH 8.0, 150 mM NaCl, 0.5 mM EDTA). […] Data reduction to absolute units, frame averaging, and subtraction were done using the FOXTROT program suite (SOLEIL synchrotron). Frames corresponding to the high-intensity fractions of the peak and having a constant radius of gyration (Rg) within error were averaged. […] Rg values were evaluated by Guinier Wizard using the data within the range of Guinier approximation sRg < 1.3 and by Distance Distribution Wizard, both of which are modules of the PRIMUS program. The maximum distance Dmax was estimated with PRIMUS and refined by trial and error with GNOM. The distance distribution functions were calculated with GNOM. SAXS profiles were compared with DATCMP (ATSAS suite).

arrhythmia in mice = conditions: cited from earlier work
EPAC1^GEF = EPAC1^GEF (Homo sapiens, UniProt O95398); conditions: cited from earlier work
EPAC1^FL [6] = molecular target: T1, EPAC1^FL; assay: Nucleotide exchange kinetics assay (BODIPY-GDP dissociation from Rap1) with full-length EPAC1; assay type: biochemical; conditions: for increase in affinity, PM liposomes vs solution: ratio of apparent KD
Experimental: Liposomes were added at 100 μM (total lipids).
Nonlinear regression based on a straight line model was performed with GraphPad Prism. EPAC1 pseudo first order catalytic efficiencies kcat/KM were deduced from the slopes of the curves, according to the Michaelis–Menten formalism. […] Nonlinear regression based on a sigmoidal model was performed with GraphPad Prism. KD and kmax were deduced from the EC50 and top values of the curves, respectively.

[7] = molecular target: Rap1/EPAC1^α-CNB-GEF complex (Homo sapiens, UniProt O95398); conditions: cAMP 1 mM, EDTA, DMSO
Experimental: EPAC1^α-CNB-GEF was used at 25 μM in all experiments. […] Proteins samples were injected into a 25 mL Superdex 200 gel filtration column (GE Healthcare) at 0.5 mL/min. Fractions were analyzed by SDS-PAGE.

EPAC1 = conditions: cited from earlier work
[8] = molecular target: CNB domain-containing EPAC1 constructs (Homo sapiens, UniProt O95398); conditions: Supplementary Fig. 2c
EPAC1^CNB-GEF = EPAC1^CNB-GEF (Homo sapiens, UniProt O95398); conditions: in solution; Supplementary Fig. 4d
Experimental: For kinetics assays, the Rap1 GTPase was loaded with BODIPY-FL-GDP (Jena Bioscience) prior to nucleotide exchange by incubating 50 μM Rap1 with 250 μM BODIPY-GDP and 10 mM EDTA for 30 min at room temperature. Nucleotide exchange was stopped by the addition of 75 mM MgCl2. Removal of excess nucleotides and buffer exchange were done on a PD SpinTrap G-25 (GE HealthCare Life Science). Nucleotide exchange kinetics were monitored by following the decay of BODIPY-GDP fluorescence upon replacement by GTP, using excitation and emission wavelengths of 485 and 530 nm, respectively. Measurements were carried out at 30 °C on a Cary Eclipse fluorimeter (Varian) under stirring in 800 μL cuvettes, or in microplate wells (150 μL) on a FLEXstation (Molecular Devices). […] Liposomes were added at 100 μM (total lipids). For kinetics in solution, kobs values were determined from a mono-exponential fit. […] In this case, kobs values corresponding to the fast component were used.

SMILES: CC1CCc2c(cc(Br)c(F)c2Br)N1C=O (stereo not shown) [CE3F4]
arrhythmia (arrhythmia in rats): prevents
in vitro activation of Rap1 by EPAC1^α-CNB-GEF (EPAC1^α-CNB-GEF [1]): inhibits
Binding (%) of EPAC1^FL to PM liposomes, DMSO set to 100% (EPAC1^FL [2]; Fig. 4f left, without cAMP, CE3F4 50 μM): 81%
activation of the Rap1 GTPase in cardiomyocytes [3]: efficiently inhibits
binding to the isolated CNB domain [4]: binds
Rg, Guinier analysis (EPAC1^α-CNB-GEF [5]; +cAMP +CE3F4): 33.41 Å
Rg, P(r) analysis (EPAC1^α-CNB-GEF [5]; +cAMP +CE3F4): 33.84 Å
Dmax (largest protein dimension) (EPAC1^α-CNB-GEF [5]): 114 Å
Rg, Guinier analysis (EPAC1^α-CNB-GEF [5]; single ligand): 32.58 Å
Rg, P(r) analysis (EPAC1^α-CNB-GEF [5]; single ligand): 32.86 Å
arrhythmia (arrhythmia in mice): prevents
inhibition of the GEF domain of EPAC1 alone (EPAC1^GEF): does not inhibit

SMILES: Nc1ncnc2c1ncn2[C@@H]1O[C@@H]2COP(=O)(O)O[C@H]2[C@H]1O [cAMP, cyclic adenosine monophosphate]
increase in affinity, PM liposomes vs solution (EPAC1^FL [6]): 278 fold
formation of the Rap1-EPAC1^α-CNB-GEF complex [7]: readily observed
effect of addition of cAMP on EPAC1^FL binding to PS-PIP2 liposomes with cholesterol (EPAC1^FL [2]; flotation assay, 1 mM cAMP): no discernible effect
effect of cAMP on binding of CNB domain-containing EPAC1 constructs to PM liposomes [8]: does not increase
effect of cAMP on intrinsic GEF activity of EPAC1^CNB-GEF (EPAC1^CNB-GEF): increased
Dmax (largest protein dimension) (EPAC1^α-CNB-GEF [5]): 130 Å
Rg, Guinier analysis (EPAC1^α-CNB-GEF [5]; single ligand): 34.91 Å
Rg, P(r) analysis (EPAC1^α-CNB-GEF [5]; single ligand): 35.53 Å

increase of kmax, PM liposomes vs solution (EPAC1^FL [6]): 12.3 fold and 12 fold
Kd (EPAC1^FL [6]; in solution, Supplementary Table 5 mean): 1.57 µM
increase in affinity, PM liposomes vs solution (EPAC1^FL [6]): 107 fold
SMILES: CO[C@@H]1[C@@H]2OP(=O)(O)OC[C@H]2O[C@H]1n1c(Sc2ccc(Cl)cc2)nc2c(N)ncnc21 [compound 007, 8-(4-chlorophenylthio)−2’-O-methyl-cAMP]
maximal activity (kmax) compared to cAMP (EPAC1; in solution, in vitro): threefold; also recorded: three times higher
